# Data from patent US20230286925A1, “PHENYL TRIAZOLE MLL1-WDR5 PROTEIN-PROTEIN INTERACTION INHIBITOR” (HUYABIO International, LLC, priority 2022, published 2023).
# Read-outs that look alike come from different tables or passages of the source.
# Columns and labels:
# [1] = molecular target: MLL1-WDR5 protein-protein interaction (Homo sapiens (Human), UniProt P61964); assay: WDR5 TR-FRET assay of inhibition against MLL1-WDR5 protein-protein interaction; assay type: binding
# Protocol: WDR5 TR-FRET Assay Procedure: Stock compounds were transferred to the assay plate by Echo Liquid Handler. Reactions were performed in the assay buffer (1×PBS, 300 mM NaCl, 0.5 mM TCEP, 0.1% CHAPS) containing 5 nM WDR5 protein, 10 nM peptide (Ac-ARTEVHLRKS-[Ahx-Ahx] [C]-Alexa Fluor 488-NH2) and 0.25 nM Tb-anti His antibody (Tb-Ab) in 384-well white plate (PerkinElmer) with a final volume of 20 μl. Compounds were incubated with WDR5 protein for 30 min at room temperature. Plates were covered, protected from light and incubated for 60 min at room temperature after adding the peptide and Tb-Ab. EnVision Multimode Plate Reader (PerkinElmer) was used for the TR-FRET assay with excitation wavelength at 340 nm and emission wavelength at 495 and 520 nm. The ratio of the 520/495 wavelengths were used to assess the degree of the FRET signal. IC50 was calculated by fitting the inhibition data using XLfit software to sigmoidal dose-response model.
# Biphenyl compound DDO-2084 was reported to be a small molecule inhibitor that can inhibit MLL1-WDR5 protein-protein interaction, reduce MLL1 enzyme catalytic activity, and downregulate the expression of Hox and Meis-1 genes (Eur. J. Med. Chem. 2016, 124, 480-489). DDO-2084 is used as a positive control compound.
# MV-411 cells = assay: Anti-proliferative activity against leukemia cells (CellTiterGlo viability, 72 hrs); assay type: cell-based; conditions: MV4-11, MV-411 human acute monocytic leukemia cell
# Protocol: Procedure: MV-411 or Molm-13 cells were seeded into 384 well plates at 2000 cells/well density in 50 uL according plate map and were allowed to naturally sediment by waiting about 30 min in Clean Bench. Next, plated cells were centrifuged for 1 min at 1000 rpm and the excess cells were transferred into the flasks for further culture. Cells in the assay plates were incubated (at least 4 hrs) at 37° C., 5% CO2 for next process followed by adding the compounds as the plate map indicated. The tests were performed in duplicates with treatment of compounds at 10 pts 3 fold titration in 384 well plates. Taxol was as positive control while DMSO as negative control. To rule out edge effect, the wells on the edge were not seeded and therefore one 384 well plate holds 13 compounds. Cells viability was measured 72 hrs after incubation with compounds and using CellTiterGlo (promega) viability assay according to manufactory's instruction to check the ATP production in each well.
# Experiments on anti-proliferative activity against leukemia cells were conducted with some of the compounds of the invention.
# [2] = Table 7, read-out: WDR5 TR-FRET Assay (IC50 nM)
# [3] = WDR5 TR-FRET, 5 nM WDR5 protein, 10 nM peptide, read-out: MLL1-WDR5 PPI inhibitory activity
structure (smiles),measurement,setting,value
"C[C@H]1CN(c2cc(F)c(-c3cnc(N4CCOCC4)nc3)cc2Nc2ncnc(Cl)c2N)CCN1C [DDO-2213_020, (S)-6-chloro-N4-(2-(3,4-dimethylpiperazin-1-yl)-4-fluoro-5-(2-morpholinopyrimidin-5-yl)phenyl)pyrimidine-4,5-diamine]",IC50,[1]; [2],7.44 nM
same,GI50,MV-411 cells; Table 7,5.21 µM
"C[C@@H]1CN(c2cc(F)c(-c3cnc(N4CCOCC4)nc3)cc2Nc2ncnc(Cl)c2N)C[C@H](C)N1C [DDO-2213_021, 6-chloro-N4-(4-fluoro-5-(2-morpholinopyrimidin-5-yl)-2-((3S,5R)-3,4,5-trimethylpiperazin-1-yl)phenyl)pyrimidine-4,5-diamine]",IC50,[1]; [2],23.4 nM
same,GI50,MV-411 cells; Table 7,9.01 µM
"C[C@@H]1CN(c2cc(F)c(-c3ccc(OCC4CC4)nc3)cc2Nc2ncnc(Cl)c2N)C[C@H](C)N1C [DDO-2213_022, 6-chloro-N4-(5-(6-(cyclopropylmethoxy)pyridin-3-yl)-4-fluoro-2-((3S,5R)-3,4,5-trimethylpiperazin-1-yl)phenyl)pyrimidine-4,5-diamine]",IC50,[1]; [2],41.2 nM
same,GI50,MV-411 cells; Table 7,3.68 µM
"C[C@@H]1CN(c2ncc(-c3cc(Nc4ncnc(Cl)c4N)c(N4CCN(C)[C@@H](C)C4)cc3F)cn2)C[C@H](C)O1 [DDO-2213_023, 6-chloro-N4-(5-(2-((2S,6R)-2,6-dimethylmorpholino)pyrimidin-5-yl)-2-((S)-3,4-dimethylpiperazin-1-yl)-4-fluorophenyl)pyrimidine-4,5-diamine]",IC50,[1]; [2],3.56 nM
same,GI50,MV-411 cells; Table 7,2.79 µM
"C[C@@H]1CN(c2cc(F)c(-c3ccnc(N4CCOCC4)n3)cc2Nc2ncnc(Cl)c2N)C[C@H](C)N1C [DDO-2213_024, 6-chloro-N4-(4-fluoro-5-(2-morpholinopyrimidin-4-yl)-2-((3S,5R)-3,4,5-trimethylpiperazin-1-yl)phenyl)pyrimidine-4,5-diamine]",IC50,[1]; [2],15 nM
same,GI50,MV-411 cells; Table 7,18.5 µM
"C[C@@H]1CN(c2cc(F)c(C3=CCCN(c4ncc(CN5CCOCC5)cn4)C3)cc2Nc2ncnc(Cl)c2N)C[C@H](C)N1C [DDO-2213_026, 6-chloro-N^4-(4-fluoro-5-(1-(5-(morpholinomethyl)pyrimidin-2-yl)-1,2,5,6-tetrahydropyridin-3-yl)-2-((3S,5R)-3,4,5-trimethylpiperazin-1-yl)phenyl)pyrimidine-4,5-diamine]",IC50,[1]; [2],18.6 nM
same,GI50,MV-411 cells; Table 7,12.7 µM
"CC(C)N1CCN(c2ncc(-c3cc(Nc4ncnc(Cl)c4N)c(N4C[C@@H](C)N(C)[C@@H](C)C4)cc3F)cn2)CC1 [DDO-2213_027, 6-chloro-N4-(4-fluoro-5-(2-(4-isopropylpiperazin-1-yl)pyrimidin-5-yl)-2-((3S,5R)-3,4,5-trimethylpiperazin-1-yl)phenyl)pyrimidine-4,5-diamine]",IC50,[1]; [2],31.3 nM
same,GI50,MV-411 cells; Table 7,6.56 µM
"C[C@@H]1CN(c2cc(F)c(-c3ccnc(N(C)C)n3)cc2Nc2ncnc(Cl)c2N)C[C@H](C)N1C [DDO-2213_028, 6-chloro-N4-(5-(2-(dimethylamino)pyrimidin-4-yl)-4-fluoro-2-((3S,5R)-3,4,5-trimethylpiperazin-1-yl)phenyl)pyrimidine-4,5-diamine]",IC50,[1]; [2],51.8 nM
same,GI50,MV-411 cells; Table 7,> 200 µM
"C[C@@H]1CN(c2cc(F)c(-c3ccnc(N4CCO[C@@H](C)C4)n3)cc2Nc2ncnc(Cl)c2N)C[C@H](C)N1C [DDO-2213_029, 6-chloro-N4-(4-fluoro-5-(2-((S)-2-methylmorpholino)pyrimidin-4-yl)-2-((3S,5R)-3,4,5-trimethylpiperazin-1-yl)phenyl)pyrimidine-4,5-diamine]",IC50,[1]; [2],12.9 nM
same,GI50,MV-411 cells; Table 7,17.2 µM
"C[C@@H]1CN(c2ccc(-c3cc(CNC4CCCCC4)ccc3F)cc2Nc2ncnc(Cl)c2N)C[C@H](C)N1C [DDO-2213_030, 6-chloro-N4-(5′-((cyclohexylamino)methyl)-2′-fluoro-4-((3S,5R)-3,4,5-trimethylpiperazin-1-yl)-[1,1′-biphenyl]-3-yl)pyrimidine-4,5-diamine]",IC50,[1]; [2],418 nM
same,GI50,MV-411 cells; Table 7,2.43 µM
"Cc1c(F)c(N)cc(C(=O)Nc2cc(-n3cc(C(=O)OCC(C)C)nn3)ccc2N2CCN(C)CC2)c1Cl [HYBI_003, isobutyl 1-(3-(5-amino-2-chloro-4-fluoro-3-methylbenzamido)-4-(4-methylpiperazin-1-yl)phenyl)-1H-1,2,3-triazole-4-carboxylate]",IC50,[1]; [3],15.6 nM
same,GI50,MV-411 cells; Table 6,3.41 µM
COc1ccc(COC(=O)c2cn(-c3ccc(N4CCN(C)CC4)c(NC(=O)c4cc(N)c(F)c(C)c4Cl)c3)nn2)cc1 [HYBI_010],IC50,[1]; [3],9.62 nM
same,GI50,MV-411 cells; Table 6,5.95 µM
CCOC(=O)[C@H](C)OC(=O)c1cn(-c2ccc(N3CCN(C)CC3)c(NC(=O)c3cc(N)c(F)c(C)c3Cl)c2)nn1 [HYBI_013],IC50,[1]; [3],19.4 nM
same,GI50,MV-411 cells; Table 6,2.46 µM
Cc1c(F)c(N)cc(C(=O)Nc2cc(-n3cc(C(=O)OCC4CCN(C)CC4)nn3)ccc2N2CCN(C)CC2)c1Cl [HYBI_016],IC50,[1]; [3],20.6 nM
same,GI50,MV-411 cells; Table 6,7.1 µM
Cc1c(F)c(N)cc(C(=O)Nc2cc(-n3cc(C(=O)OC4(C)CCC4)nn3)ccc2N2CCN(C)CC2)c1Cl [HYBI_018],IC50,[1]; [3],16.8 nM
same,GI50,MV-411 cells; Table 6,5.99 µM
Cc1c(F)c(N)cc(C(=O)Nc2cc(-n3cc(C(=O)N(C)CCCO)nn3)ccc2N2CCN(C)CC2)c1Cl [HYBI_019A],IC50,[1]; [3],17.1 nM
same,GI50,MV-411 cells; Table 6,24.9 µM
Cc1c(F)c(N)cc(C(=O)Nc2cc(-n3cc(C(=O)N(C)CCCN4CCOCC4)nn3)ccc2N2CCN(C)CC2)c1Cl [HYBI_019],IC50,[1]; [3],20.4 nM
same,GI50,MV-411 cells; Table 6,27.1 µM
Cc1c(F)c(N)cc(C(=O)Nc2cc(-n3cc(C(=O)NCCCN4CCOCC4)nn3)ccc2N2CCN(C)[C@@H](C)C2)c1Cl [HYBI_020],IC50,[1]; [3],8.23 nM
same,GI50,MV-411 cells; Table 6,8.36 µM
Cc1c(F)c(N)cc(C(=O)Nc2cc(-n3cc(C(=O)NCCCN4CCOCC4)nn3)ccc2N2C[C@@H](C)N(C)[C@@H](C)C2)c1Cl [HYBI_021],IC50,[1]; [3],7.09 nM
same,GI50,MV-411 cells; Table 6,25.1 µM
Cc1c(F)c(N)cc(C(=O)Nc2cc(-n3cc(C(=O)NCCCN4CCOCC4)nn3)ccc2N2CCCN(C)CC2)c1Cl [HYBI_022],IC50,[1]; [3],62.3 nM
same,GI50,MV-411 cells; Table 6,17.2 µM
Cc1c(F)c(N)cc(C(=O)Nc2cc(-n3cc(C(=O)NCCCN4CCOCC4)nn3)c(F)cc2N2CCN(C)CC2)c1Cl [HYBI_023],IC50,[1]; [3],19.8 nM
same,GI50,MV-411 cells; Table 6,32 µM
Cc1c(F)c(N)cc(C(=O)Nc2cc(-n3cc(C(=O)NCCCN4CCOCC4)nn3)c(F)cc2N2CCN(C)C(C)C2)c1Cl (stereo not drawn) [HYBI_027],IC50,[1]; [3],10.8 nM
same,GI50,MV-411 cells; Table 6,20 µM
Cc1c(F)c(N)cc(C(=O)Nc2cc(-n3cc(C(=O)NCCCN4CCOCC4)nn3)c(F)cc2N2C[C@@H](C)N(C)[C@@H](C)C2)c1Cl [HYBI_028],IC50,[1]; [3],5.24 nM
same,GI50,MV-411 cells; Table 6,30.9 µM
Cc1cc(C(=O)Nc2cc(-n3cc(C(=O)NCCCN4CCOCC4)nn3)ccc2N2CCN(C)CC2)cc(C)c1F [HYBI_037],IC50,[1]; [3],109 nM
same,GI50,MV-411 cells; Table 6,8.38 µM
Cc1c(F)ccc(C(=O)Nc2cc(-n3cc(C(=O)NCCCN4CCOCC4)nn3)ccc2N2CCN(C)CC2)c1Cl [HYBI_038],IC50,[1]; [3],185 nM
same,GI50,MV-411 cells; Table 6,17.5 µM
Cc1c(F)c([N+](=O)[O-])cc(C(=O)Nc2cc(-n3cc(C(=O)NCCCN4CCOCC4)nn3)ccc2N2CCN(C)CC2)c1Cl [HYBI_039],IC50,[1]; [3],131 nM
same,GI50,MV-411 cells; Table 6,0.108 µM
CN1CCN(c2ccc(-n3cc(C(=O)NCCCN4CCOCC4)nn3)cc2NC(=O)c2ccc(F)c([N+](=O)[O-])c2)CC1 [HYBI_040],IC50,[1]; [3],828 nM
same,GI50,MV-411 cells; Table 6,0.21 µM
CN1CCN(c2ccc(-n3cc(C(=O)NCCCN4CCOCC4)nn3)cc2NC(=O)c2ccc(F)c(C(F)(F)F)c2)CC1 [HYBI_042],IC50,[1]; [3],802 nM
same,GI50,MV-411 cells; Table 6,4.75 µM
Cc1cc(C)cc(C(=O)Nc2cc(-n3cc(C(=O)NCCCN4CCOCC4)nn3)ccc2N2CCN(C)CC2)c1 [HYBI_044],IC50,[1]; [3],903 nM
same,GI50,MV-411 cells; Table 6,64.8 µM
CN1CCN(c2ccc(-n3cc(C(=O)NCCCN4CCOCC4)nn3)cc2NC(=O)c2cc(Cl)cc(Cl)c2)CC1 [HYBI_045],IC50,[1]; [3],384 nM
same,GI50,MV-411 cells; Table 6,4.15 µM
